pIC50: −log10 of the molar value.

This note sets out measurements from US5346896A, “1-(aryl or heteroaryl)-4[ω-(aryl or heteroaryl)ω-(aryl or heteroaryl)alkylene]piperazines” (John Wyeth & Brother, Limited, priority 1990, dated 1994).

The target in the experiment is T1, 5-HT1A receptor (Rattus norvegicus, UniProt P19327).
T1 construct: rat hippocampal membrane homogenate; from tissue; host or cells: rat hippocampus, membrane homogenate
T1 sequence (P19327 1-422): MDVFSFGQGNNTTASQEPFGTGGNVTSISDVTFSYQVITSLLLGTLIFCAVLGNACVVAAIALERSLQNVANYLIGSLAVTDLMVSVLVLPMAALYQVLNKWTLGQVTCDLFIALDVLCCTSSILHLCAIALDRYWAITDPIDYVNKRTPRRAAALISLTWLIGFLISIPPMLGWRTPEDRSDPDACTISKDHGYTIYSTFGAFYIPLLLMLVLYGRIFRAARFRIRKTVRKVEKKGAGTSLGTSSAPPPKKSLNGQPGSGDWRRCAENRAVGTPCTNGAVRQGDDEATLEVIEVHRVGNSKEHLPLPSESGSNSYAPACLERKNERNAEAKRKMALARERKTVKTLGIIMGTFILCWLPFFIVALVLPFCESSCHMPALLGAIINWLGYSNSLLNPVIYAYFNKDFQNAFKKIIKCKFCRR
The experiment can be described thus: 5-HT1A receptor binding activity in rat hippocampal membrane homogenate. The note with it: method of Alexander and Wood. As for the experimental part:
The compounds of the invention are tested for 5-HT1A receptor binding activity in rat hippocampal membrane homogenate by the method of B. S. Alexander and M. D. Wood, J Pharm Pharmacol, 1988, 40, 888-891.

Compound `COc1ccccc1N1CCN(CC(c2ccccn2)C(O)c2ccccc2)CC1` (stereo not shown) [Example 2] gave a pIC50 of 7.70.

A word on the pIC50: it is −log10 of the IC50, conventionally taken in molar units.
